Assay results taken from US5698575A, “Chromone compounds, pharmaceutical compositions containing the same, and use of the same” (Kureha Chemical Industry Co., Ltd., priority 1995, dated 1997).

Key:
[1] = system: Crj:CD-1(ICR) mice; experiment: Acute toxicity of chromone derivative, oral, mice; format: in vivo, mouse; conditions: male mice, 500 mg/kg orally
Experimental: (§1) The acute toxicity of the chromone derivative of the present invention was evaluated, for Crj:CD-1(ICR) mice (male; 6 weeks old) and Wistar rat (male; 6 weeks old). […] In the experiments as above, two animals were used for each group.

[2] = system: Wistar rat; experiment: Acute toxicity of chromone derivative, oral, rats; format: in vivo; conditions: male rats, 500 mg/kg orally
Experimental: as §1

[3] = system: Mouse melanoma (B16-BL6) cells; experiment: Antitumor activity to mouse melanoma-cells-implanted mouse; format: in vivo; conditions: 100 mg/kg orally once a day for 13 days, C57BL/6N mice
Experimental: Mouse melanoma (B16-BL6) cells were subcutaneously implanted in the amount 1×10^6 cells in C57BL/6N mice (6 weeks old, male) at the axillary fossa. From the day after the implantation, 2-pyrrolylthiochromone was orally administered once a day for 13 days. The composition to be administered was preparedby dissolving 2-pyrrolylthiochromone powder in sesame oil, and administered at the dose of 100 mg of the compound per 1 kg of the mouse body weight. The amount of sesame oil administered was 10 ml/kg of the mouse body weight. To the control group, only sesame oil was administered. At the next day of the last administration day, the mice were sacrificed, and the weight of the tumor was measured. For the control group where the present compound was not administered, five mice were used, whereas 6 mice were used for the group where the present compound was administered.

| Structure (SMILES) | change in general state and body weight in comparison with the control group ([1]; observed for 7 days) | remarkable toxicity ([1]; observed for seven days) | change in general state and body weight in comparison with the control group ([2]; observed for 7 days) | remarkable toxicity ([2]; observed for seven days) | decrease in the body weight due to the administration [3] | inhibitory activity for the tumor growth (tumor weight) in comparison with the control group ([3]; B16-BL6 subcutaneous, FIG. 3) |
| --- | --- | --- | --- | --- | --- | --- |
| COc1cc(OC)c2c(=O)cc(-n3cnc4ccccc43)oc2c1 [2-benzimidazolyl-5,7-dimethoxychromone] | no change was observed | no remarkable toxicity | no change was observed | no remarkable toxicity | – | – |
| O=c1cc(-n2cccc2)sc2ccccc12 [2-pyrrolylthiochromone] | – | – | – | – | not observed | 36.7% |
